Results published in PMC4865820, “Branched Peptide, B2088, Disrupts the Supramolecular Organization of Lipopolysaccharides and Sensitizes the Gram-negative Bacteria” (Scientific Reports, 2016).

What was measured:
P. aeruginosa DR4877/07 [1] = experiment: microbe, parasite or virus in culture; conditions: for MIC: Pseudomonas aeruginosa, DR4877/07, 24 h, read-out: MIC of antibiotics
Experimental: MIC of each peptide was determined using the microdilution method in a 96 well microtitre plates (SPL Life Sciences Co., Ltd, Korea). Two-fold serial dilutions of each peptide in Mueller-Hinton Broth (MHB) was prepared from a 1 mg/ml stock solution of the peptide in the same broth, to obtain a final concentration in the range of 0.0976–50 μg/ml in each well. Bacterial suspensions (P. aeruginosa ATCC 27853, P. aeruginosa 4877, P. aeruginosa 23155, K. pneumoniae ATCC 10031 and K. pneumoniae 4299) were prepared by suspending the overnight cultured bacteria in saline and adjusting the inoculum to ~10^8 colony forming units (CFU) per ml. A further 150-fold dilution was then prepared in MHB to achieve a final cell density of 10^5–10^6 CFU/ml. In each well, 100 μl of inoculum was mixed with the equal volume of peptides at their 2× concentration. Positive and negative controls contained 200 μl of inoculum (without any peptide) and broth alone (no peptide/inoculum) respectively. Another negative control in which MHB containing 200 μl of peptide alone in its highest concentration tested (50 μg/ml) was also included to ensure that the optical density measured in the test wells was not due to turbidity of the peptides in solution. The 96 well polystyrene plates were then incubated at 37 °C for 24 h and the optical density at 600 nm (OD600) was measured every 30 min continuously using a TECAN microplate reader (TECAN Infinite 200, Austria).

P. aeruginosa DR4877/07 [2] = type: cell-based; conditions: for FICI of B2088-antibiotic combination: lowest FICI reported, two independent duplicates
Experimental: The synergism between peptides with conventional antibiotics was evaluated using checkerboard assays. For a comparison polymyxin B (PMB) was also tested against each antibiotic. From their stock solutions, two-fold dilutions of each antibiotic and peptide to 1× MIC were prepared in MHB. 50 μl of each peptide concentration was added into the wells of a 96-well polystyrene plates (SPL Life Sciences Co. Ltd, Korea) in a horizontal orientation and the same volume of each antibiotic concentration were then added in a vertical orientation. Bacterial suspensions were prepared in MHB to yield final cell density of ~10^6 CFU/ml and 100 μl of bacterial suspension was mixed with each peptide-antibiotic combinations. This procedure was repeated for wells containing 200 μl of peptide alone and 200 μl of antibiotic alone in various concentrations. The positive and negative controls contained 200 μl of inoculum and MHB alone respectively. The plates were incubated at 37 °C for 24 hours and the optical density at 600 nm (OD600) was monitored as before. Fractional inhibitory concentration index (FICI) for all antibiotic- peptide combinations was calculated through the summation of (MIC of peptide in the combination/ MIC of peptide alone) and (MIC of antibiotics in combination/MIC of antibiotic alone). The experiments were performed in two independent duplicates and the combinations that gave the lowest FICI values was reported.

[3] = tested on: LPS (E. coli serotype 055:B5); experiment: BODIPY TR cadaverine (BC) displacement assay with LPS; type: binding
Excerpt: To investigate the interaction of B2088 with LPS, we performed the BODIPY TR cadaverine (BC) displacement assay reported by Wood et al.[22]. The probe binds to the lipid A part of the LPS with moderate affinity and can be displaced by putative LPS-binding molecules. The method was used to probe the affinity of polycationic molecules and LPS binding proteins. First, we determined the affinity of polymyxin B (PMB), a lipopeptide cyclic antibiotic which has a high affinity for LPS. […] Figure 1a,b show the concentration-dependent displacement of LPS/lipid A-bound BC upon addition of B2088. […] To confirm the importance of branching, we determined the BC50 for a linear retrodimer having the amino acid sequence, […] (Fig. 1d). The determined value was 2-fold higher (3.9 ± 0.1 μM) than that of B2088, confirming a weaker affinity of the linear peptide.
The BC displacement assay was used to determine the ability of each peptide to bind to LPS. The florescent probe, BODIPY TR cadaverine (BC) was purchased from Molecular Probes/ Invitrogen (USA). A stock solution containing 1 mg/ml of LPS (E. coli serotype 055:B5) was prepared in dimethyl sulfoxide (DMSO) and another stock solution containing 1 mg/ml of BC dye was prepared in 5 mM HEPES buffer (pH 7.4). The optimum saturation concentration of BC:LPS ratio was standardized following the protocol provided by Wood et al. (22). From the BC stock, 240 μl was mixed with 500 μl from the LPS stock solution in 5 mM HEPES buffer (pH 7.4) to prepare 20 ml of BC:LPS mixture. Two-fold serial dilutions of each peptide in 5 mM HEPES buffer (pH 7.4) was prepared from their 1 mg/ml stock solutions to obtain a final range of 0.02–25.6 μM. The BC:LPS mixture was added to 100 μl of each peptide congener in a 1:1 ratio in each well of a 96-well black Costar™ polystyrene microtitre plate (Corning Incorporated, NY, USA). The maximum fluorescence intensity (Fmax) was determined using a mixture containing 100 μl PMB (50 μg/ml) and 100 μl BC:LPS solution, as PMB is considered the ‘gold standard’ for LPS-sequestering agents. The minimum fluorescence intensity (F0) was measured using 200 μl of BC:LPS mixture to determine the background noise for this experiment. Fluorescence measurements for each peptide (F) were determined using a microplate reader (Model: TECAN Infinite 200, Austria) with excitation and emission wavelengths set at 580 nm and 620 nm respectively. The percentage of BC displacement was then calculated using the formula: […]
The experiments were performed in duplicates and the effective concentration required for 50% displacement of BC dye (ED50) from LPS with respect to PMB was determined by curve fitting using Graphpad Prism (CA, USA). A higher ED50 value for the peptide indicates a lower affinity for LPS.

[4] = MIC of B2088 6.25 μg/ml, MHB, ~10^6 CFU/ml, 37 °C, 24 h

Compound	MIC (P. aeruginosa DR4877/07 [1])	MIC of antibiotics in the presence of ½× sub-MIC of B2088 (P. aeruginosa DR4877/07 [2]; [4])	MIC of antibiotics in the presence of ¼× sub-MIC of B2088 (P. aeruginosa DR4877/07 [2]; [4])	FICI of B2088-antibiotic combination (P. aeruginosa DR4877/07 [2])	further results
CCn1cc(C(=O)O)c(=O)c2ccc(C)nc21 [Nalidixic acid, reference compound]	3200 µg/mL	400 µg/mL		0.63	FICI of polymyxin B-antibiotic combination (P. aeruginosa DR4877/07 [2]): 1.0
RGRKVVRRKKRRVVKRGR [linear retrodimer]					ED50 (50% displacement of BC dye from LPS; also called BC50) ([3]; 5 mM HEPES pH 7.4, fluorescence ex 580/em 620 nm, with respect to PMB, duplicates): 3.9 ± 0.1 µM; BC50 fold higher than that of B2088 ([3]; LPS-bound BC): 2 fold; FICI with chloramphenicol (P. aeruginosa DR4877/07 [2]; additive effect): 1; FICI with gatifloxacin (P. aeruginosa DR4877/07 [2]; additive effect): 1; FICI with tobramycin (P. aeruginosa DR4877/07 [2]; additive effect): 1
NC[C@H]1O[C@H](O[C@H]2[C@H](O)[C@@H](O[C@H]3O[C@H](CO)[C@@H](O)[C@H](N)[C@H]3O)[C@H](N)C[C@@H]2N)[C@H](O)[C@@H](O)[C@@H]1O [Kanamycin, reference compound]		800 µg/mL	1600 µg/mL	0.75	MIC of antibiotics (P. aeruginosa DR4877/07 [1]; antibiotic alone, MHB, 37 °C, 24 h, OD600): 3200 µg/mL; Fold decrease in the MIC of antibiotics at sub-lethal/sub-inhibitory concentrations of B2088 (P. aeruginosa DR4877/07 [2]; multidrug resistant P. aeruginosa 4877): 4 fold
O=C(O)c1cn(C2CC2)c2cc(N3CCNCC3)c(F)cc2c1=O [Ciprofloxacin]	12.5 µg/mL				

Now from value to compound, other results behind:

MIC (P. aeruginosa DR4877/07 [1])	MIC of antibiotics in the presence of ½× sub-MIC of B2088 (P. aeruginosa DR4877/07 [2]; [4])	MIC of antibiotics in the presence of ¼× sub-MIC of B2088 (P. aeruginosa DR4877/07 [2]; [4])	Compound	FICI of B2088-antibiotic combination (P. aeruginosa DR4877/07 [2])	further results
50 µg/mL	12.5 µg/mL		C[C@H]1COc2c(N3CCN(C)CC3)c(F)cc3c(=O)c(C(=O)O)cn1c23 [Levofloxacin, reference compound]	0.75	
100 µg/mL	50 µg/mL		CC[C@H]1OC(=O)[C@H](C)[C@@H](O[C@H]2C[C@@](C)(OC)[C@@H](O)[C@H](C)O2)[C@H](C)[C@@H](O[C@@H]2O[C@H](C)C[C@H](N(C)C)[C@H]2O)[C@](C)(O)C[C@@H](C)C(=O)[C@H](C)[C@@H](O)[C@]1(C)O [Erythromycin, reference compound]	1.0	
0.78 µg/mL	0.0975 µg/mL	0.195 µg/mL	C[C@@H](O)[C@H]1C(=O)N2C(C(=O)O)=C(SCCN=CN)C[C@H]12 [Imipenem, reference compound]		
200 µg/mL	50 µg/mL	100 µg/mL	[H]/N=C(/N)N[C@H]1[C@H](O)[C@@H](O)[C@H](O[C@@H]2O[C@@H](C)[C@](O)(C=O)[C@H]2O[C@@H]2O[C@@H](CO)[C@H](O)[C@@H](O)[C@@H]2NC)[C@@H](N/C(N)=N\[H])[C@@H]1O [Streptomycin, reference compound]	0.75	MIC of antibiotics in the presence of ⅛× sub-MIC of B2088 (P. aeruginosa DR4877/07 [2]; [4]): 100 µg/mL
